Experiments:
Assay type in all cases: in vivo
[1] = tested on: Italian ryegrass (Lolium multiflorum); test: Test A postemergence, visual injury rating; settings: 0 is no effect, 100 is complete control
Text: (§1) Seeds of plant species selected from barnyardgrass (Echinochloa crus-galli), kochia (Kochia scoparia), ragweed (common ragweed, Ambrosia elatior), Italian ryegrass (Lolium multiflorum), large (Lg) crabgrass (Digitaria sanguinalis), giant foxtail (Setaria faberii), morningglory (Ipomoea spp.), pigweed (Amaranthus retroflexus), velvetleaf (Abutilon theophrasti), wheat (Triticum aestivum), and corn (Zea mays) were planted into a blend of loam soil and sand and treated preemergence with a directed soil spray using test chemicals formulated in a non-phytotoxic solvent mixture which included a surfactant.
(§2) At the same time, plants selected from these crop and weed species and also blackgrass (Alopecurus myosuroides), and galium (catchweed bedstraw, Galium aparine) were planted in pots containing the same blend of loam soil and sand and treated with postemergence applications of test chemicals formulated in the same manner. Plants ranged in height from 2 to 10 cm and were in the one- to two-leaf stage for the postemergence treatment. Treated plants and untreated controls were maintained in a greenhouse for approximately 10 days, after which time all treated plants were compared to untreated controls and visually evaluated for injury. Plant response ratings, summarized in Table A, are based on a 0 to 100 scale where 0 is no effect and 100 is complete control. A dash (-) response means no test result.

[2] = tested on: barnyardgrass (Echinochloa crus-galli); test: Test A postemergence, visual injury rating; settings: 0 is no effect, 100 is complete control
Text: as §1, §2

[3] = tested on: blackgrass (Alopecurus myosuroides); test: Test A postemergence, visual injury rating; settings: 0 is no effect, 100 is complete control
Text: as §1, §2

corn (Zea mays) = test: Test A postemergence, visual injury rating; settings: 0 is no effect, 100 is complete control
Text: as §1, §2

[4] = tested on: giant foxtail (Setaria faberii); test: Test A postemergence, visual injury rating; settings: 0 is no effect, 100 is complete control
Text: as §1, §2

kochia (Kochia scoparia) [5] = test: Test A postemergence, visual injury rating; settings: 0 is no effect, 100 is complete control
Text: as §1, §2

[6] = tested on: pigweed (Amaranthus retroflexus); test: Test A postemergence, visual injury rating; settings: 0 is no effect, 100 is complete control
Text: as §1, §2

[7] = tested on: galium (catchweed bedstraw, Galium aparine); test: Test A postemergence, visual injury rating; settings: 0 is no effect, 100 is complete control
Text: as §1, §2

[8] = tested on: ragweed (common ragweed, Ambrosia elatior); test: Test A postemergence, visual injury rating; settings: 0 is no effect, 100 is complete control
Text: as §1, §2

[9] = tested on: wheat (Triticum aestivum); test: Test A postemergence, visual injury rating; settings: 0 is no effect, 100 is complete control
Text: as §1, §2

[10] = tested on: barnyardgrass (Echinochloa crus-galli); test: Test B flooded paddy test, plant response rating; settings: 250 g ai/ha; Flood; scale of 0 to 100 where 0 is no effect and 100 is complete control; 13 to 15 days
How it was run: (§3)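 Flooded 3 cm over soil; compound into paddy water; depth kept constant. Greenhouse 13–15 d.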

[11] = tested on: sedge, umbrella (small-flower umbrella sedge, Cyperus difformis); test: Test B flooded paddy test, plant response rating; settings: 250 g ai/ha; Flood; scale of 0 to 100 where 0 is no effect and 100 is complete control; 13 to 15 days
How it was run: as §3

rice (Oryza sativa) = test: Test B flooded paddy test, plant response rating; settings: 250 g ai/ha; Flood; scale of 0 to 100 where 0 is no effect and 100 is complete control; 13 to 15 days
How it was run: as §3

[12] = tested on: ducksalad (Heteranthera limosa); test: Test B flooded paddy test, plant response rating; settings: 250 g ai/ha; Flood; scale of 0 to 100 where 0 is no effect and 100 is complete control; 13 to 15 days
How it was run: as §3

[13] = tested on: Italian ryegrass (Lolium multiflorum); test: Test A preemergence, visual injury rating; settings: for Ryegrass, Italian plant response rating: 0 to 100 scale (0 no effect, 100 complete control)
How it was run: (§4)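 Compounds in non-phytotoxic solvent with surfactant applied as soil spray preemergence, or postemergence to plants 2-10 cm at one- to two-leaf stage, in loam/sand. After approximately 10 days in greenhouse, injury rated visually versus untreated controls, 0 (no effect) to 100 (complete control).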

[14] = tested on: barnyardgrass (Echinochloa crus-galli); test: Test A preemergence, visual injury rating; settings: for Barnyardgrass plant response rating: 0 to 100 scale (0 no effect, 100 complete control)
How it was run: as §4

[15] = tested on: giant foxtail (Setaria faberii); test: Test A preemergence, visual injury rating; settings: for Foxtail, Giant plant response rating: 0 to 100 scale (0 no effect, 100 complete control)
How it was run: as §4

kochia (Kochia scoparia) [16] = test: Test A preemergence, visual injury rating; settings: for Kochia plant response rating: 0 to 100 scale (0 no effect, 100 complete control)
How it was run: as §4

[17] = tested on: pigweed (Amaranthus retroflexus); test: Test A preemergence, visual injury rating; settings: for Pigweed plant response rating: 0 to 100 scale (0 no effect, 100 complete control)
How it was run: as §4

[18] = tested on: ragweed (common ragweed, Ambrosia elatior); test: Test A preemergence, visual injury rating; settings: for Ragweed plant response rating: 0 to 100 scale (0 no effect, 100 complete control)
How it was run: as §4

[19] = 31 g ai/ha, 0 to 100 scale, approximately 10 days
[20] = 31 g ai/ha, 0 to 100 scale, 0 no effect, 100 complete control

Compound	Ryegrass, Italian plant response rating (0 to 100 scale) ([1]; 125 g ai/ha)	Barnyardgrass plant response rating (0 to 100 scale) ([2]; 125 g ai/ha)	Blackgrass plant response rating (0 to 100 scale) ([3]; 125 g ai/ha)	Corn plant response rating (0 to 100 scale) (corn (Zea mays); 125 g ai/ha)	Foxtail, Giant plant response rating (0 to 100 scale) ([4]; 125 g ai/ha)	Kochia plant response rating (0 to 100 scale) (kochia (Kochia scoparia) [5]; 125 g ai/ha)	Pigweed plant response rating (0 to 100 scale) ([6]; 125 g ai/ha)	Galium plant response rating (0 to 100 scale) ([7]; 125 g ai/ha)	Ragweed plant response rating (0 to 100 scale) ([8]; 125 g ai/ha)	Wheat plant response rating (0 to 100 scale) ([9]; 125 g ai/ha)	Plant response rating, Barnyardgrass [10]	Plant response rating, Sedge, Umbrella [11]	Plant response rating, Rice (rice (Oryza sativa))	Plant response rating, Ducksalad [12]	Ryegrass, Italian plant response rating ([13]; 125 g ai/ha)	Barnyardgrass plant response rating ([14]; 125 g ai/ha)	Foxtail, Giant plant response rating ([15]; 125 g ai/ha)	Kochia plant response rating (kochia (Kochia scoparia) [16]; 125 g ai/ha)	Pigweed plant response rating ([17]; 125 g ai/ha)	Ragweed plant response rating ([18]; 125 g ai/ha)	other results
CC(C)=CCOC(=O)c1c(Br)cccc1Oc1ncc(Cl)cn1 [Compound 11]	0	10	0	0	20	0	10	10	0	0	0	0	0	0	0	0	40	0	0	0	Ryegrass, Italian plant response rating (0 to 100 scale) ([1]; 500 g ai/ha): 0; Barnyardgrass plant response rating (0 to 100 scale) ([2]; 500 g ai/ha): 20; Blackgrass plant response rating (0 to 100 scale) ([3]; 500 g ai/ha): 20; Corn plant response rating (0 to 100 scale) (corn (Zea mays); 500 g ai/ha): 10; Foxtail, Giant plant response rating (0 to 100 scale) ([4]; 500 g ai/ha): 20; Kochia plant response rating (0 to 100 scale) (kochia (Kochia scoparia) [5]; 500 g ai/ha): 40; Pigweed plant response rating (0 to 100 scale) ([6]; 500 g ai/ha): 60; Galium plant response rating (0 to 100 scale) ([7]; 500 g ai/ha): 20; Ragweed plant response rating (0 to 100 scale) ([8]; 500 g ai/ha): 0; Wheat plant response rating (0 to 100 scale) ([9]; 500 g ai/ha): 0; Ryegrass, Italian plant response rating ([13]; 500 g ai/ha): 0; Barnyardgrass plant response rating ([14]; 500 g ai/ha): 30; Foxtail, Giant plant response rating ([15]; 500 g ai/ha): 100; Kochia plant response rating (kochia (Kochia scoparia) [16]; 500 g ai/ha): 0; Pigweed plant response rating ([17]; 500 g ai/ha): 20; Ragweed plant response rating ([18]; 500 g ai/ha): 0
CC(=O)c1c(Br)cccc1Oc1ncc(Cl)cn1 [Compound 12]	–	–	–	–	–	–	–	–	–	–	0	0	0	0	–	–	–	–	–	–	Ryegrass, Italian plant response rating (0 to 100 scale) ([1]; 1000 g ai/ha): 50; Barnyardgrass plant response rating (0 to 100 scale) ([2]; 1000 g ai/ha): 80; Blackgrass plant response rating (0 to 100 scale) ([3]; 1000 g ai/ha): 50; Corn plant response rating (0 to 100 scale) (corn (Zea mays); 1000 g ai/ha): 20; Foxtail, Giant plant response rating (0 to 100 scale) ([4]; 1000 g ai/ha): 70; Kochia plant response rating (0 to 100 scale) (kochia (Kochia scoparia) [5]; 1000 g ai/ha): 80; Pigweed plant response rating (0 to 100 scale) ([6]; 1000 g ai/ha): 100; Galium plant response rating (0 to 100 scale) ([7]; 1000 g ai/ha): 80; Ragweed plant response rating (0 to 100 scale) ([8]; 1000 g ai/ha): 60; Wheat plant response rating (0 to 100 scale) ([9]; 1000 g ai/ha): 0; Ryegrass, Italian plant response rating ([13]; 1000 g ai/ha): 40; Barnyardgrass plant response rating ([14]; 1000 g ai/ha): 80; Foxtail, Giant plant response rating ([15]; 1000 g ai/ha): 100; Kochia plant response rating (kochia (Kochia scoparia) [16]; 1000 g ai/ha): 0; Pigweed plant response rating ([17]; 1000 g ai/ha): 100; Ragweed plant response rating ([18]; 1000 g ai/ha): 80
CC(CN(C)C(=O)c1c(Br)cccc1Oc1ncc(Cl)cn1)C(F)(F)F (centres unmarked) [Compound 18]	0	0	0	0	0	0	10	0	0	0	0	0	0	0	0	0	0	0	10	0	Ryegrass, Italian plant response rating (0 to 100 scale) ([1]; 500 g ai/ha): 0; Barnyardgrass plant response rating (0 to 100 scale) ([2]; 500 g ai/ha): 0; Blackgrass plant response rating (0 to 100 scale) ([3]; 500 g ai/ha): 0; Corn plant response rating (0 to 100 scale) (corn (Zea mays); 500 g ai/ha): 0; Foxtail, Giant plant response rating (0 to 100 scale) ([4]; 500 g ai/ha): 0; Kochia plant response rating (0 to 100 scale) (kochia (Kochia scoparia) [5]; 500 g ai/ha): 10; Pigweed plant response rating (0 to 100 scale) ([6]; 500 g ai/ha): 20; Galium plant response rating (0 to 100 scale) ([7]; 500 g ai/ha): 0; Ragweed plant response rating (0 to 100 scale) ([8]; 500 g ai/ha): 0; Wheat plant response rating (0 to 100 scale) ([9]; 500 g ai/ha): 0; Ryegrass, Italian plant response rating ([13]; 500 g ai/ha): 0; Barnyardgrass plant response rating ([14]; 500 g ai/ha): 0; Foxtail, Giant plant response rating ([15]; 500 g ai/ha): 0; Kochia plant response rating (kochia (Kochia scoparia) [16]; 500 g ai/ha): 10; Pigweed plant response rating ([17]; 500 g ai/ha): 40; Ragweed plant response rating ([18]; 500 g ai/ha): 0
CN(CCC(F)(F)F)C(=O)c1c(Br)cccc1Oc1ncc(Cl)cn1 [Compound 19]	0	0	0	0	0	0	10	0	0	0	0	0	0	0	0	0	0	20	20	0	Ryegrass, Italian plant response rating [1, 19]: 0; Barnyardgrass plant response rating [2, 19]: 0; Blackgrass plant response rating [3, 19]: 0; Corn plant response rating (corn (Zea mays); [19]): 0; Foxtail, Giant plant response rating [4, 19]: 0; Kochia plant response rating (kochia (Kochia scoparia) [5]; [19]): 0; Pigweed plant response rating [6, 19]: 10; Galium plant response rating [7, 19]: 0; Ragweed plant response rating [8, 19]: 0; Wheat plant response rating [9, 19]: 0; Plant response rating, Ryegrass, Italian [13, 20]: 0; Plant response rating, Barnyardgrass [14, 20]: 0; Plant response rating, Foxtail, Giant [15, 20]: 0; Plant response rating, Kochia (kochia (Kochia scoparia) [16]; [20]): 0; Plant response rating, Pigweed [17, 20]: 0; Plant response rating, Ragweed [18, 20]: 0
CN(OCC(F)(F)F)C(=O)c1c(Br)cccc1Oc1ncc(Br)cn1 [Compound 24]	0	0	0	0	0	0	0	10	0	0	0	0	0	0	0	0	0	0	0	0	Ryegrass, Italian plant response rating (0 to 100 scale) ([1]; 500 g ai/ha): 0; Barnyardgrass plant response rating (0 to 100 scale) ([2]; 500 g ai/ha): 10; Blackgrass plant response rating (0 to 100 scale) ([3]; 500 g ai/ha): 0; Corn plant response rating (0 to 100 scale) (corn (Zea mays); 500 g ai/ha): 0; Foxtail, Giant plant response rating (0 to 100 scale) ([4]; 500 g ai/ha): 0; Kochia plant response rating (0 to 100 scale) (kochia (Kochia scoparia) [5]; 500 g ai/ha): 0; Pigweed plant response rating (0 to 100 scale) ([6]; 500 g ai/ha): 10; Galium plant response rating (0 to 100 scale) ([7]; 500 g ai/ha): 20; Ragweed plant response rating (0 to 100 scale) ([8]; 500 g ai/ha): 0; Wheat plant response rating (0 to 100 scale) ([9]; 500 g ai/ha): 0; Ryegrass, Italian plant response rating ([13]; 500 g ai/ha): 0; Barnyardgrass plant response rating ([14]; 500 g ai/ha): 30; Foxtail, Giant plant response rating ([15]; 500 g ai/ha): 20; Kochia plant response rating (kochia (Kochia scoparia) [16]; 500 g ai/ha): 0; Pigweed plant response rating ([17]; 500 g ai/ha): 90; Ragweed plant response rating ([18]; 500 g ai/ha): 0
